In brackets after ≈: the same amount, converted by molar mass.
Experiments:
MCF7 = assay: Antitumor activity against human MCF7 cells after 48 hrs by Sulphorhodamine-B assay; settings: MCF7, 48 h
HeLa = assay: Antitumor activity against human HeLa cells after 48 hrs by Sulphorhodamine-B assay
HepG2 = assay: Antitumor activity against human HepG2 cells after 48 hrs by Sulphorhodamine-B assay; settings: HepG2, 48 h

IC50 (MCF7) [µg/mL]	IC50 (HeLa) [µg/mL]	IC50 (HepG2) [µg/mL]	Compound
5.39 (≈ 18.7 µM)	8.23 (≈ 28.5 µM)	21 (≈ 72.7 µM)	Cc1ccc(C(=O)Nc2ccc(Cl)cc2C(N)=O)cc1
14.7 (≈ 50.7 µM)	18.9 (≈ 65.2 µM)	15.9 (≈ 55.1 µM)	Cc1ccc(C(=O)Nc2ccc(Cl)cc2C(=O)O)cc1
10.5 (≈ 38.6 µM)	8.23 (≈ 30.3 µM)	22.5 (≈ 82.8 µM)	Cc1ccc(-c2nc3ccc(Cl)cc3c(=O)o2)cc1
4.98 (≈ 18.4 µM)	10.1 (≈ 37.3 µM)	9.86 (≈ 36.4 µM)	Cc1ccc(-c2nc3ccc(Cl)cc3c(=O)[nH]2)cc1
3.35 (≈ 11.8 µM)	4.37 (≈ 15.3 µM)	4.17 (≈ 14.6 µM)	Cc1ccc(-c2nc3ccc(Cl)cc3c(=O)n2C)cc1
3.35 (≈ 11.7 µM)	4.57 (≈ 15.9 µM)	7.01 (≈ 24.4 µM)	Cc1ccc(-c2nc3ccc(Cl)cc3c(=S)[nH]2)cc1
3.76 (≈ 13.9 µM)	3.56 (≈ 13.2 µM)	14.5 (≈ 53.8 µM)	Cc1ccc(-c2nc(N)c3cc(Cl)ccc3n2)cc1
6.81 (≈ 23.8 µM)	12.7 (≈ 44.4 µM)	23.1 (≈ 80.8 µM)	Cc1ccc(-c2nc(NO)c3cc(Cl)ccc3n2)cc1
3.76 (≈ 13.2 µM)	3.98 (≈ 14 µM)	4.17 (≈ 14.6 µM)	Cc1ccc(-c2nc(NN)c3cc(Cl)ccc3n2)cc1
5.39 (≈ 18.9 µM)	12.1 (≈ 42.3 µM)	18.4 (≈ 64.4 µM)	Cc1ccc(-c2nc3ccc(Cl)cc3c(=O)n2N)cc1
5.18 (≈ 18 µM)	13.3 (≈ 46.2 µM)	11.1 (≈ 38.6 µM)	Cc1ccc(-c2nc3ccc(Cl)cc3c(=S)o2)cc1
9.25 (≈ 30.6 µM)	14 (≈ 46.4 µM)	17 (≈ 56.3 µM)	Cc1ccc(-c2nc3ccc(Cl)cc3c(=S)n2N)cc1
8.64 (≈ 28.7 µM)	14.7 (≈ 48.9 µM)	13.3 (≈ 44.2 µM)	CSc1nc(-c2ccc(C)cc2)nc2ccc(Cl)cc12
16.1 (≈ 43.1 µM)	16.2 (≈ 43.3 µM)	17.5 (≈ 46.8 µM)	Cc1ccc(-c2nc(NC(=O)c3ccccc3)c3cc(Cl)ccc3n2)cc1
5.59 (≈ 14.3 µM)	5.18 (≈ 13.3 µM)	12.1 (≈ 31 µM)	Cc1ccc(-c2nc(NOC(=O)c3ccccc3)c3cc(Cl)ccc3n2)cc1
3.35 (≈ 10.5 µM)	4.98 (≈ 15.6 µM)	5.59 (≈ 17.5 µM)	Cc1ccc(C(=O)Nc2ccc(Cl)cc2C(=S)NN)cc1
9.66 (≈ 25.6 µM)	11.3 (≈ 30 µM)	18.4 (≈ 48.8 µM)	Cc1ccc(-c2nc(SCc3ccccc3)c3cc(Cl)ccc3n2)cc1
3.35 (≈ 10.3 µM)	3.76 (≈ 11.5 µM)	4.37 (≈ 13.4 µM)	Cc1ccc(-c2nc(SCC#N)c3cc(Cl)ccc3n2)cc1
8.03 (≈ 24.6 µM)	9.66 (≈ 29.6 µM)	23.9 (≈ 73.1 µM)	C=CCSc1nc(-c2ccc(C)cc2)nc2ccc(Cl)cc12
3.56 (≈ 8.71 µM)	5.39 (≈ 13.2 µM)	5.59 (≈ 13.7 µM)	Cc1ccc(-c2nc(Sc3ncccc3[N+](=O)[O-])c3cc(Cl)ccc3n2)cc1
3.76 (≈ 11.4 µM)	9.25 (≈ 28 µM)	9.04 (≈ 27.3 µM)	Cc1ccc(-c2nc(SCCO)c3cc(Cl)ccc3n2)cc1
3.96 (≈ 9.68 µM)	7.01 (≈ 17.1 µM)	7.21 (≈ 17.6 µM)	Cc1ccc(-c2nc(S(=O)(=O)Cc3ccccc3)c3cc(Cl)ccc3n2)cc1
5.59 (≈ 16.3 µM)	4.98 (≈ 14.5 µM)	9.45 (≈ 27.5 µM)	Cc1ccc(-c2nc(SCC(N)=O)c3cc(Cl)ccc3n2)cc1
4.78 (≈ 11.4 µM)	11.7 (≈ 27.9 µM)	14.3 (≈ 34.1 µM)	Cc1ccc(-c2nc(SCC(=O)Nc3ccccc3)c3cc(Cl)ccc3n2)cc1
15.8 (≈ 34.1 µM)	10.1 (≈ 21.8 µM)	5.99 (≈ 12.9 µM)	CCOc1ccc(NC(=O)CSc2nc(-c3ccc(C)cc3)nc3ccc(Cl)cc23)cc1
5.79 (≈ 13.3 µM)	12.3 (≈ 28.3 µM)	18.8 (≈ 43.3 µM)	Cc1ccc(NC(=O)CSc2nc(-c3ccc(C)cc3)nc3ccc(Cl)cc23)cc1
14.7 (≈ 33.6 µM)	10.5 (≈ 24 µM)	18.4 (≈ 42 µM)	Cc1ccc(-c2nc(SCC(=O)Nc3ccc(F)cc3)c3cc(Cl)ccc3n2)cc1
3.76 (≈ 6.92 µM)	3.64 (≈ 6.7 µM)	4.57 (≈ 8.41 µM)	COc1cccc2c1C(=O)c1c(O)c3c(c(O)c1C2=O)C[C@@](O)(C(=O)CO)C[C@@H]3O[C@H]1C[C@H](N)[C@H](O)[C@H](C)O1 [DOXORUBICIN]
